# In US20230365592A1 (Agios Pharmaceuticals, Inc., priority 2022, published 2023):
# Molecular target: T1, human PAH with the R408W mutation (Homo sapiens, UniProt P00439, R408W)
# T1 construct: expressed in transfected cells
# T1 sequence (P00439 1-452 R408W): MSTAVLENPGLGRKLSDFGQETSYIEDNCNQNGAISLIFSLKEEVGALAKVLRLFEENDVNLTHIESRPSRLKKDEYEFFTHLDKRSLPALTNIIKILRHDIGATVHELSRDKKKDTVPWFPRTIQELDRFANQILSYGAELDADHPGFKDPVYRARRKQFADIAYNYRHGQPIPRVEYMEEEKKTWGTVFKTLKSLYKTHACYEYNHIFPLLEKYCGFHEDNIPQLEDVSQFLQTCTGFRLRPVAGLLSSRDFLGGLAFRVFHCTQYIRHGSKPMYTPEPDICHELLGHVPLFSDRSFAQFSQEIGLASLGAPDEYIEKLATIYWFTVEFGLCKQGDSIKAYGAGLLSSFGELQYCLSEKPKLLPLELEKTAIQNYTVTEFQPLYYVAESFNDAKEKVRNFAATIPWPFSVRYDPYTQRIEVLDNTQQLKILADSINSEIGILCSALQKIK
# Assay: Cell Based Phenylalanine Flux Assay;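 also: after compound treatment, cells received sepiapterin plus isotope-labelled Phenylalanine for 4 hours, then labelled Tyrosine in the medium was quantified, 10-point 2-fold dilution series run in duplicate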
# Conditions: A375 cells expressing human R408W PAH; 24 hrs compound incubation; 13C-Tyrosine by LC-MS; average where tested multiple times; read-out: AC50
row,Compound,AC50
1,"O=C(c1nnc(-c2ccn(C(F)F)n2)o1)N1CCc2[nH]cnc2[C@H]1c1cc2c(OC(F)F)cccn2n1 [Example 1662, (S)-(4-(4-(difluoromethoxy)pyrazolo[1,5-a]pyridin-2-yl)-6,7-dihydro-1H-imidazo[4,5-c]pyridin-5(4H)-yl)(5-(1-(difluoromethyl)-1H-pyrazol-3-yl)-1,3,4-oxadiazol-2-yl)methanone]",500 to 1000 nM
2,"O=C(c1nnc(-c2ccn(C(F)F)n2)o1)N1CCc2[nH]cnc2[C@@H]1c1cc2c(OC(F)F)cccn2n1 [Example 1663, (R)-(4-(4-(difluoromethoxy)pyrazolo[1,5-a]pyridin-2-yl)-6,7-dihydro-1H-imidazo[4,5-c]pyridin-5(4H)-yl)(5-(1-(difluoromethyl)-1H-pyrazol-3-yl)-1,3,4-oxadiazol-2-yl)methanone]",> 5000 nM
3,"Clc1cccn2nc([C@@H]3c4nc[nH]c4CCN3c3ncccn3)cc12 [Example 1664, (S)4-(4-chloropyrazolo[1,5-a]pyridin-2-yl)-5-(pyrimidin-2-yl)-4,5,6,7-tetrahydro-1H-imidazo[4,5-c]pyridine]",< 500 nM
4,"Clc1cccn2nc([C@H]3c4nc[nH]c4CCN3c3ncccn3)cc12 [Example 1665, (R)-4-(4-chloropyrazolo[1,5-a]pyridin-2-yl)-5-(pyrimidin-2-yl)-4,5,6,7-tetrahydro-1H-imidazo[4,5-c]pyridine]",1000 to 5000 nM
5,"Cc1ccc2c(C(=O)N3CCc4[nH]cnc4[C@@H]3c3cc4c(C(F)(F)F)cccn4n3)cnn2c1 [Example 1667, (R)-(6-methylpyrazolo[1,5-a]pyridin-3-yl)(4-(4-(trifluoromethyl)pyrazolo[1,5-a]pyridin-2-yl)-6,7-dihydro-1H-imidazo[4,5-c]pyridin-5(4H)-yl)methanone]",> 5000 nM
6,"Cc1ccc2c(C(=O)N3CCc4[nH]cnc4[C@@H]3c3cc4c(C)cccn4n3)cnn2c1 [Example 1669, (R)-(4-(4-methylpyrazolo[1,5-a]pyridin-2-yl)-6,7-dihydro-1H-imidazo[4,5-c]pyridin-5(4H)-yl)(6-methylpyrazolo[1,5-a]pyridin-3-yl)methanone]",> 5000 nM
7,"Cc1ccc2c(C(=O)N3CCc4[nH]cnc4[C@H]3c3cc4c(F)cccn4n3)cnn2c1 [Example 1670, (S)-(4-(4-fluoropyrazolo[1,5-a]pyridin-2-yl)-6,7-dihydro-1H-imidazo[4,5-c]pyridin-5(4H)-yl)(6-methylpyrazolo[1,5-a]pyridin-3-yl)methanone]",500 to 1000 nM
8,"O=C(c1cnn2cc(C3CC3)ccc12)N1CCc2[nH]cnc2[C@H]1c1cc2c(F)cccn2n1 [Example 1672, (S)-(6-cyclopropylpyrazolo[1,5-a]pyridin-3-yl)(4-(4-fluoropyrazolo[1,5-a]pyridin-2-yl)-6,7-dihydro-1H-imidazo[4,5-c]pyridin-5(4H)-yl)methanone]",< 500 nM
9,"COc1ccc2c(C(=O)N3CCc4[nH]cnc4[C@H]3c3cc4c(C(F)(F)F)cccn4n3)cnn2c1 [Example 1674, (S)-(6-methoxypyrazolo[1,5-a]pyridin-3-yl)(4-(4-(trifluoromethyl)pyrazolo[1,5-a]pyridin-2-yl)-6,7-dihydro-1H-imidazo[4,5-c]pyridin-5(4H)-yl)methanone]",500 to 1000 nM
10,"COc1ccc2c(C(=O)N3CCc4[nH]cnc4[C@H]3c3cc4c(C(F)F)cccn4n3)cnn2c1 [Example 1676, (S)-(4-(4-(difluoromethyl)pyrazolo[1,5-a]pyridin-2-yl)-6,7-dihydro-1H-imidazo[4,5-c]pyridin-5(4H)-yl)(6-methoxypyrazolo[1,5-a]pyridin-3-yl)methanone]",500 to 1000 nM
11,"COc1ccc2c(C(=O)N3CCc4[nH]cnc4[C@@H]3c3cc4c(C(F)F)cccn4n3)cnn2c1 [Example 1677, (R)-(4-(4-(difluoromethyl)pyrazolo[1,5-a]pyridin-2-yl)-6,7-dihydro-1H-imidazo[4,5-c]pyridin-5(4H)-yl)(6-methoxypyrazolo[1,5-a]pyridin-3-yl)methanone]",> 5000 nM
12,"O=C(c1nnc(-c2ncccc2F)o1)N1CCc2[nH]cnc2[C@@H]1c1cc2c(OC(F)(F)F)cccn2n1 [Example 1678, (R)-(5-(3-fluoropyridin-2-yl)-1,3,4-oxadiazol-2-yl)(4-(4-(trifluoromethoxy)pyrazolo[1,5-a]pyridin-2-yl)-6,7-dihydro-1H-imidazo[4,5-c]pyridin-5(4H)-yl)methanone]",> 5000 nM
13,"O=C(c1nnc(-c2ncccc2F)o1)N1CCc2[nH]cnc2[C@H]1c1cc2c(OC(F)(F)F)cccn2n1 [Example 1679, (S)-(5-(3-fluoropyridin-2-yl)-1,3,4-oxadiazol-2-yl)(4-(4-(trifluoromethoxy)pyrazolo[1,5-a]pyridin-2-yl)-6,7-dihydro-1H-imidazo[4,5-c]pyridin-5(4H)-yl)methanone]",< 500 nM
14,"O=C(c1nnc(-c2cnccn2)o1)N1CCc2[nH]cnc2[C@H]1c1cc2c(OC(F)(F)F)cccn2n1 [Example 1680, (S)-(5-(pyrazin-2-yl)-1,3,4-oxadiazol-2-yl)(4-(4-(trifluoromethoxy)pyrazolo[1,5-a]pyridin-2-yl)-6,7-dihydro-1H-imidazo[4,5-c]pyridin-5(4H)-yl)methanone]",500 to 1000 nM
15,"Cn1cc(-c2nnc(C(=O)N3CCc4[nH]cnc4[C@H]3c3cc4c(OC(F)(F)F)cccn4n3)o2)cn1 [Example 1682, (S)-(5-(1-methyl-1H-pyrazol-4-yl)-1,3,4-oxadiazol-2-yl)(4-(4-(trifluoromethoxy)pyrazolo[1,5-a]pyridin-2-yl)-6,7-dihydro-1H-imidazo[4,5-c]pyridin-5(4H)-yl)methanone]",< 500 nM
16,"CC(C)(C)c1nnc(C(=O)N2CCc3[nH]cnc3[C@H]2c2cc3c(OC(F)F)cccn3n2)o1 [Example 1687, (S)-(5-(tert-butyl)-1,3,4-oxadiazol-2-yl)(4-(4-(difluoromethoxy)pyrazolo[1,5-a]pyridin-2-yl)-6,7-dihydro-1H-imidazo[4,5-c]pyridin-5(4H)-yl)methanone]",500 to 1000 nM
17,"O=C(c1nnc(-c2ccccn2)o1)N1CCc2[nH]cnc2[C@H]1c1cc2c(OC(F)F)cccn2n1 [Example 1689, (S)-(4-(4-(difluoromethoxy)pyrazolo[1,5-a]pyridin-2-yl)-6,7-dihydro-1H-imidazo[4,5-c]pyridin-5(4H)-yl)(5-(pyridin-2-yl)-1,3,4-oxadiazol-2-yl)methanone]",< 500 nM
18,"Cc1cccc2cc([C@@H]3c4nc[nH]c4CCN3C(=O)c3cnn4cc(CN(C)C)ccc34)nn12 [Example 1690, (S)-(6-((dimethylamino)methyl)pyrazolo[1,5-a]pyridin-3-yl)(4-(7-methylpyrazolo[1,5-a]pyridin-2-yl)-6,7-dihydro-1H-imidazo[4,5-c]pyridin-5(4H)-yl)methanone]",500 to 1000 nM
19,"Cc1cccc2cc([C@H]3c4nc[nH]c4CCN3C(=O)c3cnn4cc(CN(C)C)ccc34)nn12 [Example 1691, (R)-(6-((dimethylamino)methyl)pyrazolo[1,5-a]pyridin-3-yl)(4-(7-methylpyrazolo[1,5-a]pyridin-2-yl)-6,7-dihydro-1H-imidazo[4,5-c]pyridin-5(4H)-yl)methanone]",> 5000 nM
20,"FC(F)(F)c1cccn2nc([C@@H]3c4nc[nH]c4CCN3c3ncccn3)cc12 [Example 1692, (S)-5-(pyrimidin-2-yl)-4-(4-(trifluoromethyl)pyrazolo[1,5-a]pyridin-2-yl)-4,5,6,7-tetrahydro-1H-imidazo[4,5-c]pyridine]",< 500 nM
